Data: the CheMixHub ionic liquid set
Where “and” joins values, the source holds several entries; their conditions need not be identical. Identical values can stand only once.

Test: xn = mol fraction of the nth substance listed

CCOS(=O)(=O)[O-].CC[n+]1ccn(C)c1 + O=C([O-])CC(O)(CC(=O)[O-])C(=O)[O-].[K+].[K+].[K+] + O
viscosity [mPa·s], 101.3 kPa
Conditions | 293.15 K | 298.15 K | 303.15 K | 308.15 K | 313.15 K
x2 = 0, x1 = 0.001795 | 1.073 | 0.96 | 0.845 | 0.751 | 0.679
x2 = 0, x1 = 0.002698 | 1.107 | 0.987 | 0.876 | 0.788 | 0.709
x2 = 0, x1 = 0.003589 | 1.136 | 1.016 | 0.899 | 0.811 | 0.727

CCCC[N+](CCCC)(CCCC)CCCC.O=S(=O)([O-])O + O
viscosity [mPa·s], 101 kPa
Conditions | x1 = 9.009e-05 | x1 = 0.0001802 | x1 = 0.0002702 | x1 = 0.0003603
298.15 K | 0.894 | 0.896 | 0.899 | 0.901
308.15 K | 0.723 | 0.726 | 0.728 | 0.73
318.15 K | 0.602 | 0.603 | 0.605 | 0.608

COCCOC + CCCC[n+]1ccn(C)c1.O=S(=O)([N-]S(=O)(=O)C(F)(F)F)C(F)(F)F
Conditions | electrical conductivity [S/m]
294.5 K, 100 kPa, x2 = 0.02332 | 0.62

[Cl-].c1c[nH+]c[nH]1 + OCC(O)CO
100 kPa
Conditions | viscosity [mPa·s]
313.2 K, x1 = 0.1667 | 306
313.2 K, x1 = 0.3333 | 154.5
323.2 K, x1 = 0.25 | 107
323.2 K, x1 = 0.3333 | 84
333.2 K, x1 = 0.5 | 100.1
343.2 K, x1 = 0.5 | 50.6

CC[n+]1ccn(C)c1.F[P-](F)(F)(F)(F)F + CC(C)[C@H](N)C(=O)O + O
100 kPa
Conditions | electrical conductivity, 298.15 K [S/m] | electrical conductivity, 303.15 K [S/m] | electrical conductivity, 308.15 K [S/m] | viscosity, 298.15 K [mPa·s] | viscosity, 303.15 K [mPa·s] | viscosity, 308.15 K [mPa·s]
x2 = 0.0001802, x1 = 1.802e-05 | 0.0115 | 0.0132 | 0.0158 | 0.924 | 0.855 | 0.783
x2 = 0.0001803, x1 = 5.405e-05 | 0.0309 | 0.0338 | 0.0369 | 0.939 | 0.861 | 0.788
x2 = 0.0001804, x1 = 9.008e-05 | 0.0452 | 0.0507 | 0.0552 | 0.954 | 0.865 | 0.792
x2 = 0.0004522, x1 = 1.801e-05 | 0.0121 | 0.0136 | 0.0156 | 0.93 | 0.862 | 0.79
x2 = 0.0004524, x1 = 5.403e-05 | 0.0301 | 0.0329 | 0.0366 | 0.946 | 0.868 | 0.795
x2 = 0.0004526, x1 = 9.005e-05 | 0.046 | 0.0507 | 0.0551 | 0.963 | 0.876 | 0.801
x2 = 0.0007258, x1 = 1.801e-05 | 0.0124 | 0.0141 | 0.016 | 0.936 | 0.869 | 0.797
x2 = 0.0007262, x1 = 5.402e-05 | 0.0308 | 0.0336 | 0.0361 | 0.953 | 0.875 | 0.802
x2 = 0.0007265, x1 = 9.003e-05 | 0.0494 | 0.0548 | 0.0593 | 0.97 | 0.884 | 0.808
x2 = 0.0009976, x1 = 1.8e-05 | 0.0136 | 0.015 | 0.0177 | 0.942 | 0.876 | 0.803
x2 = 0.000998, x1 = 5.4e-05 | 0.0304 | 0.0333 | 0.0354 | 0.96 | 0.883 | 0.811
x2 = 0.0009985, x1 = 9e-05 | 0.0457 | 0.051 | 0.0553 | 0.979 | 0.893 | 0.818
x2 = 0.001273, x1 = 1.8e-05 | 0.0147 | 0.0167 | 0.0199 | 0.948 | 0.882 | 0.811
x2 = 0.001273, x1 = 5.399e-05 | 0.0323 | 0.0341 | 0.0377 | 0.969 | 0.89 | 0.819
x2 = 0.001274, x1 = 8.998e-05 | 0.0487 | 0.0538 | 0.0594 | 0.988 | 0.899 | 0.826
x2 = 0.001546, x1 = 1.799e-05 | 0.0161 | 0.0182 | 0.0218 | 0.954 | 0.888 | 0.818
x2 = 0.001547, x1 = 5.397e-05 | 0.0327 | 0.0343 | 0.0383 | 0.976 | 0.897 | 0.827
x2 = 0.001547, x1 = 8.995e-05 | 0.0455 | 0.0512 | 0.0549 | 0.996 | 0.908 | 0.833

C[NH+](C)C.O=S(=O)([N-]S(=O)(=O)C(F)(F)F)C(F)(F)F + CC#N
101 kPa
Conditions | electrical conductivity [S/m]
298.15 K, x2 = 0.66 | 4.82
303.15 K, x2 = 0.86 | 6.87

CC[n+]1ccn(C)c1.[Br-] + O
viscosity [mPa·s], 100 kPa
Conditions | 288.15 K | 298.15 K | 303.15 K | 308.15 K | 318.15 K | 333.15 K
x1 = 0.0001802 | 1.141 | 0.911 | – | 0.744 | 0.627 | –
x1 = 0.0007203 | 1.147 | 0.916 | – | 0.748 | 0.632 | –
x1 = 0.00126 | 1.152 | 0.923 | – | 0.754 | 0.639 | –
x1 = 0.049 | – | – | 1.48 | – | – | 0.797
x1 = 0.1978 | – | – | 5.45 | – | – | –

CC(=O)[O-].Cn1cc[nH+]c1 + COS(=O)(=O)[O-].Cn1cc[n+](C)c1
298.15 K, 100 kPa
Conditions | viscosity [mPa·s]
x1 = 0.1 | 90.2
x1 = 0.19 | 77.2
x1 = 0.31 | 56.3
x1 = 0.4 | 40.7
x1 = 0.5 | 35.3
x1 = 0.59 | 27.7

CCOS(=O)(=O)[O-].CC[n+]1ccn(C)c1 + CC[n+]1ccn(C)c1.N#C[S-]
Conditions | viscosity [mPa·s]
353.15 K, 100 kPa, x2 = 0 | 15

C[N+](C)(C)CCO.O=C([O-])[C@@H]1CCCN1 + O
viscosity [mPa·s], 100 kPa
Conditions | x1 = 0.01436 | x1 = 0.02022 | x1 = 0.03417
308.15 K | 1.18 | 1.23 | –
338.15 K | – | – | 1.23

CC(=O)[O-].CCCC[P+](CCCC)(CCCC)CCCC + CC(=O)[O-].CCCC[n+]1ccn(C)c1
101 kPa
Conditions | viscosity [mPa·s]
313.15 K, x2 = 0.751 | 246
323.15 K, x2 = 0.5018 | 169.2

CC(=O)[O-].Cn1cc[nH+]c1 + CC(=O)[O-].C[NH+]1CCCC1
Conditions | viscosity [mPa·s]
298.15 K, 100 kPa, x1 = 1 | 6.22

[I-].[Li+] + CCCC[n+]1ccn(C)c1.N#C[N-]C#N
electrical conductivity [S/m], 101 kPa
Conditions | x2 = 0.917 | x2 = 0.9294 | x2 = 0.9462 | x2 = 0.9628 | x2 = 0.9799
288.15 K | – | 0.389 | 0.465 | 0.506 | 0.569
298.15 K | 0.577 | 0.643 | 0.749 | 0.809 | 0.892
333.15 K | 1.92 | 2.04 | 2.28 | 2.33 | 2.56

CC(=O)[O-].Cn1cc[nH+]c1 + CCO
293.15 K, 101.3 kPa
Conditions | electrical conductivity [S/m]
x2 = 0 | 0.326
x2 = 0.9371 | 0.448

CCCCCCCCn1cc[n+](C)c1C.[Cl-] + O
298 K, 101 kPa
Conditions | electrical conductivity [S/m]
x1 = 2.703e-05 | 0.02
x1 = 0.0001369 | 0.09
x1 = 0.000245 | 0.14
x1 = 0.0003531 | 0.2
x1 = 0.0004899 | 0.27
x1 = 0.0007347 | 0.32
x1 = 0.0008984 | 0.41
x1 = 0.001197 | 0.48
x1 = 0.001468 | 0.58
x1 = 0.001766 | 0.69
x1 = 0.002039 | 0.79
x1 = 0.002391 | 0.88
x1 = 0.002715 | 0.99
x1 = 0.003203 | 1.14
x1 = 0.003772 | 1.32
x1 = 0.004474 | 1.48
x1 = 0.005202 | 1.66
x1 = 0.005876 | 1.77
x1 = 0.006575 | 1.9
x1 = 0.007219 | 2.02
x1 = 0.007783 | 2.11
x1 = 0.008319 | 2.19
x1 = 0.0088 | 2.26
x1 = 0.009202 | 2.34
x1 = 0.009496 | 2.39

CCOS(=O)(=O)[O-].CC[n+]1ccn(C)c1 + OCCO
100 kPa
Conditions | electrical conductivity | viscosity
293.15 K, x1 = 0.2999 | – | 20.52 mPa·s
293.15 K, x2 = 0.406 | – | 41.6 mPa·s
298.15 K, x1 = 0.001 | 0.0067 S/m and 0.0121 S/m | 16 mPa·s and 16.9 mPa·s
298.15 K, x2 = 0 | – | 95.9 mPa·s
298.15 K, x2 = 0.597 | 0.95 S/m | 21.7 mPa·s
298.15 K, x2 = 0.851 | 0.72 S/m | 14.8 mPa·s
303.15 K, x1 = 0.001 | – | 13.8 mPa·s
303.15 K, x1 = 0.5992 | – | 28.04 mPa·s
303.15 K, x1 = 0.6994 | – | 37.14 mPa·s
303.15 K, x2 = 0.792 | – | 13 mPa·s
308.15 K, x1 = 0.1982 | – | 10.85 mPa·s
308.15 K, x1 = 0.2999 | – | 12.62 mPa·s
313.15 K, x1 = 0.001 | 0.0115 S/m and 0.0206 S/m | 9.15 mPa·s and 9.54 mPa·s
313.15 K, x1 = 0.003 | 0.0362 S/m | 9.48 mPa·s
313.15 K, x1 = 0.008 | 0.097 S/m | 9.49 mPa·s
313.15 K, x1 = 0.1982 | – | 9.37 mPa·s
313.15 K, x2 = 0.406 | 1.27 S/m | 20.6 mPa·s
313.15 K, x2 = 0.938 | 0.59 S/m | 9.05 mPa·s
318.15 K, x1 = 0.1982 | – | 8.15 mPa·s
318.15 K, x1 = 0.4002 | – | 11.61 mPa·s
318.15 K, x1 = 0.8001 | – | 27.31 mPa·s
318.15 K, x1 = 0.8993 | – | 35.33 mPa·s
323.15 K, x1 = 0.1003 | – | 6.66 mPa·s
333.15 K, x1 = 0.1003 | – | 5.1 mPa·s
333.15 K, x1 = 0.1982 | – | 5.59 mPa·s
333.15 K, x1 = 0.5005 | – | 9.85 mPa·s
338.15 K, x1 = 0.5992 | – | 10.45 mPa·s
343.15 K, x1 = 0.5005 | – | 7.87 mPa·s
343.15 K, x1 = 0.5992 | – | 9.34 mPa·s
343.15 K, x1 = 0.8001 | – | 13.58 mPa·s
